Assay results as given in patent US20250034218A1, “ANTIMICROBIAL PEPTIDES” (BiomEdit, LLC, priority 2021, published 2025).
Ends that are not written are not given here.

Tests used:
[1] = test system: E. coli DH5alpha; type: cell-based, Escherichia coli; conditions: peptide treated with proteinase K at 37° C. before MIC assay
Method: CAP18 peptide variants single mutants were evaluated for resistance to proteinase K. Peptides were subjected to proteinase K treatment and then assessed for bacterial cell killing (against E. coli) in a MIC assay.
CAP18 variants were synthesized from GenScript, Inc, and solubilized in sterile purified water to a final concentration of 4 mg/ml. E. coli DH5alpha was grown overnight in 10 ml LB broth. Ten microliters of each CAP18 variant was treated with 2 μl of proteinase K (Qjagen, >600 mAU/ml) and incubated at 37° C. for 2 or 5 minutes in a PCR machine. The samples were then incubated at 98° C. for 5 minutes to inactivate proteinase K. An MIC assay was set up using proteinase K-treated CAP18 variants in a 96-well plate. Briefly, the peptides were serially diluted 2-fold in LB broth to achieve a final volume of 50 μl in each well and 50 μl of the E. coli DH5alpha culture adjusted to a concentration of 2×10^6 cells/ml was added into each well. Appropriate controls (media only control, no CAP18 control) were included on the same plate. The plates were incubated at 37° C. for 24-48 hours and MIC for each variant was recorded. The experiment was repeated 3 times.

[2] = 90° C. for 30 minutes; cited from earlier work
[3] = test system: M. haemolytica; type: cell-based, Mannheimia haemolytica; conditions: plate assay, FIG. 2B
Method: (§1) CAP18 peptide (wild type peptide also herein designated as AMP01) has application and utility for multiple indications in livestock, poultry & aqua species. […] Cap18 peptide is active against viruses of significance for the animal industry, such as PRRSV (PRRS, swine) (FIG. 2C). […] FIG. 3 depicts activity of CAP18 peptide (AMP01) against Giardia.
(§2) Antimicrobial effect of CAP18 against BRD pathogens M. haemolytica and P. multocida was evaluated.

[4] = test system: porcine reproductive and respiratory syndrome virus (PRRSV); test: Inhibition of PRRS virus infection; type: cell-based; conditions: 1:2 and 1:4 diluted
Method: Antibacterial peptide CAP18 was evaluated for activity inhibiting virus, particularly its antiviral effect on porcine reproductive and respiratory syndrome virus (PRRSV). Results are provided in Figure S. AMP01 polypeptide was evaluated at 1:2 and 1:4 diluted and shown to be effective.

[5] = test system: P. mutlocida; type: cell-based, Pasteurella multocida
Method: as §1, §2

[6] = test system: Giardia trophozoites; test: Giardia trophozoite test tube assay, light microscopy; type: cell-based; conditions: AMP01 100 μM, FOR 5 μM
Method: Test tube with a confluent layer of trophozoites is treated with AMP01 (100 μM). Light microscopy, counting of detached dead or alive (i.e. motile) trophozoites is then conducted. Formononetin (5 μM; FOR) is used for comparison as a positive control.
The changes in morphology were still visible one day after the treatment and are depicted in FIG. 3 (photographs all taken at 100×). After 1 d, the trophozoites in the control tube (FIG. 3A) were fully alive (and overgrowing), as expected. […] The different sizes of the trophozoites can be noted by comparing the white circles. Similar effects were observed using cytotoxic anti-variant surface protein antibodies (Hemphil et al. 1996).

[7] = test system: Y. ruckeri; conditions: injection before exposure to Y. ruckeri; compared to non-treated fish; cited from earlier work
[8] = test system: Methanobacterium bryantii; test: In-vitro screening, growth of rumen methanogen; type: cell-based; conditions: FIGS. 10A and 10B; BES as positive control
Source text: BES, a known methanogen inhibitor shown in FIG. 10C, was used as a positive control.

[9] = test system: E. coli DH5 alpha; type: cell-based, Escherichia coli
Method: A MIC assay was set up using heat treated CAP18 variants in a 96-well plate. […] Appropriate controls (media only control, no CAP18 control) were included on the same plate. The plates were incubated at 37° C. for 24-48 hours and MIC for each variant was recorded. The experiment was repeated 3 times.

[10] = test system: Giardia; test: Giardia plate assay, % of control (Table 3); type: cell-based; conditions: plate G7
Source text: Data comparing AMP01 (wild type CAP 18 peptide (SEQ ID NO: 1) with various other agents is tabulated in Table 3. NTZ corresponds to nitazoxanide. ALB corresponds to albendazole.

[11] = test system: E. coli DH5alpha; type: cell-based, Escherichia coli; conditions: peptide treated with trypsin at 37° C. before MIC assay
Method: CAP18 peptide variants single mutants were evaluated for resistance to trypsin. Peptides were subjected to trypsin protease treatment and then assessed for bacterial cell killing (against E. coli) in a MIC assay.
CAP18 variants were synthesized from GenScript, Inc, and solubilized in sterile purified water to a final concentration of 4 mg/ml. E. coli DH5alpha was grown overnight in 10 ml LB broth. Ten microliters of each CAP18 variant was treated with 2 μl (or 2 μl of the 10-fold diluted trypsin) of trypsin (0.25%, Sigma Aldrich) and incubated at 37° C. for 2 or 5 minutes in a PCR machine. The samples were then incubated at 98° C. for 5 minutes to inactivate trypsin. An MIC assay was set up using trypsin-treated CAP18 variants in a 96-well plate. Briefly, the peptides were serially diluted 2-fold in LB broth to achieve a final volume of 50 μl in each well and 50 μl of the E. coli DH5alpha culture adjusted to a concentration of 2×10^6 cells/ml was added into each well. Appropriate controls (media only control, no CAP18 control) were included on the same plate. The plates were incubated at 37° C. for 24-48 hours and MIC for each variant was recorded. The experiment was repeated 3 times.

[12] = test system: Eimeria; test: Inhibition of Eimeria parasites; type: cell-based; conditions: Eimeria (Coccidiosis, poultry)
Method: The effect of Cap 18 peptides and any variants thereof is tested on Eimeria. An exemplary study is provided with results depicted in FIG. 4. Three independent experiments were conducted with CAP18 peptides—designated Cap18a, Cap18b and Cap18c. The CAP18 peptides were compared with monensin as a positive control. Three independent experiments with monensin (designated Mona, Monb and Monc).

For “GLRKRLRKFRNKIKEKLKKIGQKIQGLLPKLAPRTDY [AMP01]”, the “Resistance to proteinase K (MIC, ug/ml)” value [1] is listed as over 400 µg/mL, the “antimicrobial activity after heat treatment” value [2] is listed as “retain full antimicrobial activity” and the MIC [3] is listed as 4 to 8 µg/mL. The “antiviral effect on PRRSV” value [4] was “effective”, the MIC [5] was 4 to 8 µg/mL and the detachment of trophozoites ([6]; after 1 h) was “nearly complete detachment”. The “morphology and motility of detached trophozoites” value ([6]; after 1 h) was “crumbled, shrunken and immotile”, the state of trophozoites ([6]; after 1 d) was “dead, shrunken and started to disintegrate” and the mortality [7] was “lower mortality”. For the same sequence, the “growth of rumen methanogen” value [8] was “inhibits the growth”, the “Thermotolerance at 90 for 5 minutes (MIC, ug/ml)” value [9] was 200 µg/mL and the “% of control MV” value ([10]; Conc 10 (uM or %)) was 141.1%. For the same sequence, the “% of control MV” value ([10]; Conc 100 (uM or %)) was 1.0%, the “Resistance to trypsin (MIC, ug/ml)” value [11] was 25 µg/mL and the “inhibiting activity of parasites” value [12] was “effective in inhibiting activity”.
